Experimental data published in patent US10259843B2, “Cyclic tetrapeptide stereoisomers” (University of Kansas, priority 2014, dated 2019).
Several values for one entry are separate records, joined by “and”; a condition that tells them apart may be missing. Identical values can stand only once. Entries after “also recorded” stand apart in the source; their conditions may differ. Counter-ions that a name gives are not always drawn. Like-named read-outs stand apart in the source and are kept apart here. Non-standard residues stand in square brackets, D forms with d. Residues, ends and D or L forms follow the SMILES beside them.

Columns and labels:
[1] = system: opioid receptors (KOR, MOR, DOR); experiment: mouse 55° C. warm water tail withdrawal assay, opioid antagonist activity; assay type: in vivo; settings: for Antagonism (opioid receptor antagonised in vivo): dose not given
Procedure: (§1) The peptides of Table 1 shown below in Tables 3 and 4 were evaluated in radioligand binding assays for mu, kappa and delta opioid receptor affinities in vitro, and in the mouse 55° C. warm water tail withdrawal assay in vivo for antinociception and opioid antagonist activity.

[2] = molecular target: mu opioid receptor (MOR) (Homo sapiens, UniProt P35372); experiment: radioligand binding assay, mu opioid receptor affinity
Sequence of mu opioid receptor (MOR) (P35372 whole entry): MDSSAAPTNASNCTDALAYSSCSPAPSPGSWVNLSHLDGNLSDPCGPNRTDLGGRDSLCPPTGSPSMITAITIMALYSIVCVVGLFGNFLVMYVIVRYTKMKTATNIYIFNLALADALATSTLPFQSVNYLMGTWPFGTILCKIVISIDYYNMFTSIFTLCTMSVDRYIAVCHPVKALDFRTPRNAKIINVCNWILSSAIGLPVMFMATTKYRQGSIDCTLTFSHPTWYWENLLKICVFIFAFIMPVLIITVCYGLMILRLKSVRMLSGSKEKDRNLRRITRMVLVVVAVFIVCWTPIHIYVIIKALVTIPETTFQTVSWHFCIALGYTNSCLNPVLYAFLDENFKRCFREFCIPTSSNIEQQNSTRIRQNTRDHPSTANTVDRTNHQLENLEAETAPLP
Procedure: as §1

[3] = molecular target: kappa opioid receptor (KOR) (Homo sapiens, UniProt P41145); experiment: radioligand binding assay, kappa opioid receptor affinity; settings: for Selectivity KOR/MOR/DOR: ratio of Ki values
Sequence of kappa opioid receptor (KOR) (P41145 whole entry): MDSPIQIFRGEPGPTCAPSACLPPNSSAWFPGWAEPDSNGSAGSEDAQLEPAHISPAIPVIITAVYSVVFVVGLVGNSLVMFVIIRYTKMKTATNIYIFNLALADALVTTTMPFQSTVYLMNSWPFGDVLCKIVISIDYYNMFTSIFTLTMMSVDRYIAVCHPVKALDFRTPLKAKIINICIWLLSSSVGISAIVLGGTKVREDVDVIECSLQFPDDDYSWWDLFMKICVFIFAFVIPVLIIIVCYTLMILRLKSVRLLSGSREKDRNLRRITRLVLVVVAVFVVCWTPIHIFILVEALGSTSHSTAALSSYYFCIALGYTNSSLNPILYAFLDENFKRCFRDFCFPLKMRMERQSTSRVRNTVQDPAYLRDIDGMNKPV
Procedure: as §1

[4] = locomotion (CLAMS); assay type: in vivo; set-up: key: ✓ indicates tested (if no other comment then no significant effect)
[5] = rotorod test for sedation and motor coordination; assay type: in vivo; set-up: key: ✓ indicates tested (if no other comment then no significant effect)
[6] = respiratory depression; assay type: in vivo; set-up: key: ✓ indicates tested (if no other comment then no significant effect)
[7] = conditioned place response assay; settings: oral administration of the peptides
[8] = nerve constriction assay for neuropathic pain; assay type: in vivo, rodent; settings: 10 mg/kg p.o.; compared to 50 mg/kg i.p. gabapentin and 2801
Procedure: In the nerve constriction assay, a nerve of a subject rodent is chronically constricted or cuffed and then the animal is assessed for response to pain stimuli such a paw withdrawal. […] Gabapentin is an accepted treatment for neuropathic pain.

[9] = molecular target: delta opioid receptor (DOR) (Homo sapiens, UniProt P41143); experiment: radioligand binding assay, delta opioid receptor affinity; settings: for Ki: n in parentheses, read-out: Ki (nM ± SEM) DOR
Sequence of delta opioid receptor (DOR) (P41143 whole entry): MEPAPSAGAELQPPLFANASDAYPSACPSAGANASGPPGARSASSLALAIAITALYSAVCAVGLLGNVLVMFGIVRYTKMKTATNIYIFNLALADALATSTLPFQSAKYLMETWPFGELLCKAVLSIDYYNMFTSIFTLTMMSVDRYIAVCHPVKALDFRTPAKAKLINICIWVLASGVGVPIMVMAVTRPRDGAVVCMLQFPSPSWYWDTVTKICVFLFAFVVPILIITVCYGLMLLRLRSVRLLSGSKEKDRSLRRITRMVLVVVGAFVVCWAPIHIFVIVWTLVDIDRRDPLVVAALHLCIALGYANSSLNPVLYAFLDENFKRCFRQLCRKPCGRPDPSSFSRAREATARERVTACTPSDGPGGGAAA
Procedure: as §1

[10] = other pain models (formalin, acetic acid stretching, nerve constriction; FIGS. 1-3B); settings: in vivo
Description: These models are based on the formalin assay, the acetic acid stretching assay, and the nerve constriction assay. The formalin and acetic acid stretching assays are indicative of activity against inflammatory pain (i.e., nociceptive pain) and the nerve constriction assay is indicative of activity against neuropathic pain.

[11] = mouse 55° C. warm water tail withdrawal assay, antinociception; assay type: in vivo; settings: for ED50 (95% CI) i.c.v. / ED50 (95% CI) p.o.: antinociception; for Receptors involved: opioid receptors contributing to antinociception
Procedure: as §1

[12] = acute tolerance model; settings: in vivo
[13] = stress-induced reinstatement of cocaine seeking behavior, conditioned place preference assay; settings: in vivo
Description: In interesting comparison to the other cyclic tetrapeptides, compound 3613 (DDDD) is a mu opioid receptor (MOR) agonist and delta opioid receptor (DOR) antagonist. MOR agonists/DOR antagonists are of great interest because of their decreased liability profile (decreased addiction potential and liability profile such as tolerance) compared to MOR agonists like morphine.

[14] = n in parentheses, read-out: Ki (nM ± SEM) MOR
[15] = n in parentheses, read-out: Ki (nM ± SEM) KOR

| Compound | Antagonism (opioid receptor antagonised in vivo) [1] | Ki [2, 14] | Ki [3, 15] | Locomotion (CLAMS, 10 mg/kg, p.o.) [4] | Rotorod (10 mg/kg, p.o.) [5] | Respiratory depression 10 mg/kg p.o. [6] | Ki [9] | ED50 (95% CI) i.c.v. ([11]; i.c.v.) | ED50 (95% CI) p.o. ([11]; p.o.) | Receptors involved [11] | further results |
| --- | --- | --- | --- | --- | --- | --- | --- | --- | --- | --- | --- |
| O=C1N[C@H](Cc2ccccc2)C(=O)N2CCC[C@@H]2C(=O)N[C@@H](Cc2ccccc2)C(=O)N[C@H]1Cc1c[nH]c2ccccc12 [JVA 3605, cyclo[D-Phe-D- Pro-Phe-Trp]] (cyclo([dF][dP]FW)) | exhibits KOR antagonist activity; also recorded: exhibit DOR antagonist activity | > 10000 nM | 5120 ± 690 nM | ✓ | effects similar to the KOR selective agonist U50,488, suggesting sedation; also recorded: ✓ (sig | evidence of respiratory depression; also recorded: Sig. resp | > 10000 nM | 0.75 nmol | 7.62 mg/kg | KOR, MOR, and DOR | Antagonism (dose, nmol) ([1]; 30 nmol): KOR (30),; Antagonism (dose, nmol) ([1]; 100 nmol): DOR (100); conditioned place preference (drug seeking behavior) or conditioned place aversion [7]: no evidence of inducing drug seeking behavior; also recorded: do not show evidence of conditioned place preference (drug seeking behavior) or conditioned place aversion; relief of neuropathic pain [8]: significant relief of neuropathic pain; analgesic activity in other pain models [10]: significant analgesic properties; also recorded: show activity against pain |
| O=C1N[C@H](Cc2ccccc2)C(=O)N[C@H](Cc2c[nH]c3ccccc23)C(=O)N[C@@H](Cc2ccccc2)C(=O)N2CCC[C@H]12 [JVA 3608, cyclo[Phe-D-Pro-D-Phe-D-Trp]] (cyclo(F[dP][dF][dW])) | exhibit DOR antagonist activity | 5800 ± 1450 nM | 353 ± 19 nM | Sig. hypo- | ✓ | evidence of respiratory depression; also recorded: Resp | > 10000 nM | 0.56 nmol | 4.72 mg/kg | KOR, MOR, and DOR | Antagonism (dose, nmol) ([1]; 100 nmol): DOR (100); Ki ([2]; read-out: Ki MOR): > 1000 nM; Ki ([3]; read-out: Ki KOR): < 1000 nM; relief of neuropathic pain [8]: significant relief of neuropathic pain; affinity for DOR [9]: negligible affinity; analgesic activity in other pain models [10]: significant analgesic properties; analgesic activity in other pain models ([10]; listed as 3708): show activity against pain; Acute Tolerance ED50 shift [12]: 9.87 fold |
| O=C1N[C@@H](Cc2ccccc2)C(=O)N2CCC[C@@H]2C(=O)N[C@@H](Cc2ccccc2)C(=O)N[C@H]1Cc1c[nH]c2ccccc12 [JVA 2801, cyclo[Phe-D-Pro-Phe-Trp], reference compound] (cyclo(FWF[dP])) | KOR |  | 35.4 nM and 16.9 nM |  |  |  | 1720 ± 350 nM | 1.74 nmol | 3.49 mg/kg | KOR, MOR | Antagonism (opioid receptor antagonised in vivo) ([1]; listed as CJ-15,208): mixed opioid agonist/kappa opioid receptor (KOR) antagonist activity; also recorded: weak antagonist activities at kappa opioid receptors (KOR); Selectivity KOR/MOR/DOR [3]: 1/18/49 and 1/12/102; Rotorod ([5]; 10 and 60 mg/kg): ✓ (10 and 60; Acute Tolerance ED50 shift [12]: 1.73 fold |
| CN1CC[C@]23c4c5ccc(O)c4O[C@H]2[C@@H](O)C=C[C@H]3[C@H]1C5 [Morphine sulfate, morphine, reference compound] |  |  |  |  |  |  |  |  |  |  | conditioned place preference (drug seeking behavior) or conditioned place aversion [7]: significant conditioned place preference |
| O=C1N[C@H](Cc2ccccc2)C(=O)N[C@H](Cc2c[nH]c3ccccc23)C(=O)N[C@H](Cc2ccccc2)C(=O)N2CCC[C@H]12 [JVA 3613, cyclo[D-Phe-D-Pro-D-Phe-D-Trp]] (cyclo([dF][dP][dF][dW])) | exhibit DOR antagonist activity | > 10000 nM | 2010 ± 270 nM | ✓ | ✓ | ✓ | > 10000 nM | 0.51 nmol | 2.47 mg/kg | kappa opioid receptors (KOR) are not involved; also recorded: DOR, MOR | Antagonism (dose, nmol) ([1]; 30 nmol): DOR (30); prevention of stress-induced reinstatement of cocaine seeking behavior [13]: effective in preventing stress-induced reinstatement of cocaine seeking behavior |
| O=C1N[C@H](Cc2c[nH]c3ccccc23)C(=O)N[C@@H](Cc2ccccc2)C(=O)N2CCC[C@@H]2C(=O)N[C@H]1Cc1ccccc1 [JVA 2802, cyclo[Phe-D-Pro-Phe-D-Trp], reference compound] (cyclo(F[dP]F[dW])) | KOR | 259 ± 29 nM |  |  |  |  | 4190 ± 860 nM |  |  | KOR | affinity for KOR [3]: retains KOR affinity comparable to the parent CJ-15,208; Selectivity KOR/MOR/DOR [3]: 1/37/599; Locomotion (CLAMS) ([4]; 60 mg/kg): ✓; antinociception i.c.v. at 30 nmol ([11]; i.c.v., 30 nmol): ~40% @; antinociception p.o. at 60 mg/kg ([11]; p.o., 60 mg/kg): ~25% @ |
| O=C1N[C@@H](Cc2ccccc2)C(=O)N2CCC[C@H]2C(=O)N[C@@H](Cc2ccccc2)C(=O)N[C@H]1Cc1c[nH]c2ccccc12 [JVA 3612, cyclo[Phe-Pro- Phe-Trp]] (cyclo(FPFW)) |  |  |  |  |  |  |  | 3.52 (2.01-6.42) nmol | 4.28 (3.56-5.27) mg/kg | KOR, MOR and DOR |  |
| O=C1N[C@@H](Cc2ccccc2)C(=O)N2CCC[C@@H]2C(=O)N[C@H](Cc2ccccc2)C(=O)N[C@H]1Cc1c[nH]c2ccccc12 [JVA 3606, cyclo[Phe-D-Pro-D-Phe-Trp]] (cyclo(F[dP][dF]W)) |  | 3920 ± 200 nM | 362 ± 51 nM | Sig. hypo- | ✓ | ✓ | > 10000 nM | Partial agonist | > 30 mg/kg | KOR, MOR | Antagonism (dose, nmol) ([1]; 100 nmol): None (100); Ki ([2]; read-out: Ki MOR): > 1000 nM; Ki ([3]; read-out: Ki KOR): < 1000 nM; affinity for DOR [9]: negligible affinity; maximum antinociception i.c.v. ([11]; i.c.v., max): (~60% max); antinociception response p.o. at 30 mg/kg ([11]; p.o.): ~45%; Acute Tolerance ED50 shift [12]: Substantial |
| O=C1N[C@H](Cc2c[nH]c3ccccc23)C(=O)N[C@@H](Cc2ccccc2)C(=O)N2CCC[C@H]2C(=O)N[C@H]1Cc1ccccc1 [JVA 3639, cyclo[Phe-Pro- Phe-D-Trp]] (cyclo(FPF[dW])) |  |  |  |  |  |  |  | 49.7 (34.8-69.8) nmol |  |  |  |
| O=C1N[C@H](Cc2ccccc2)C(=O)N2CCC[C@H]2C(=O)N[C@H](Cc2ccccc2)C(=O)N[C@H]1Cc1c[nH]c2ccccc12 [JVA 3638, cyclo[D-Phe- Pro-D-Phe-Trp]] (cyclo(P[dF]W[dF])) |  |  |  |  |  |  |  | 8.93 (1.96-19.5) nmol |  |  |  |
| O=C1N[C@H](Cc2c[nH]c3ccccc23)C(=O)N[C@H](Cc2ccccc2)C(=O)N2CCC[C@@H]2C(=O)N[C@H]1Cc1ccccc1 [JVA 3609, cyclo[D-Phe-D- Pro-Phe-D-Trp]] (cyclo(F[dW][dF][dP])) |  | > 10000 nM | > 10000 nM | Sig. hypo- | ✓ (sig | evidence of respiratory depression; also recorded: Resp | > 10000 nM | 2.39 nmol | ≥10 mg/kg | mu opioid receptors (MOR) are not involved; also recorded: DOR, KOR | Antagonism (dose, nmol) ([1]; 30 nmol): None (30); antinociception response p.o. at 30 mg/kg ([11]; p.o.): (~60% at |
